In US9638702B2 (priority 2001, dated 2017):
Where two headings read alike, the source gives them in different places.

Legend:
[1] = type: physicochemical
[2] = type: physicochemical; remark: listed apart in the source

Substance: poly-L-lysine
- CD minimum ([1]; pH 7): approximately 205 nm
- CD minimum ([1]; pH 11): approximately 216 nm
- absorbance plateau ([2]; pH 7): approximately 0.22
- absorbance plateau ([2]; pH 11): approximately 0.12
